Test results published in the supplement of paper PMC10307832.

Key:
Experiment in all cases: relative viability (nuclei count vs DMSO), 5 days (fraction); higher = more cells survive
[1] = compound: Cc1ccc(C(=O)N(CCCN)[C@@H](c2nc3cc(Cl)ccc3c(=O)n2Cc2ccccc2)C(C)C)cc1 [Ispinesib] + Cc1cc(Nc2cc(N3CCN(C)CC3)nc(Sc3ccc(NC(=O)C4CC4)cc3)n2)n[nH]1 [Tozasertib] (partner 0.1 µM)
How it was run: (§1)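 Lung cancer cell lines, seeded in 1536-well plates, were treated the following day by pin tool with a single drug or with five library-drug doses (not always all listed) in √10 steps on top of a fixed anchor-drug dose. Cells were fixed and nuclei stained in one step after 5 days, and nuclei were counted. Relative viability is the nuclei count for treated wells divided by that for vehicle wells, reported as medians of duplicate plates.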

[2] = compound: C[C@]1(O)C[C@@H](c2nc(-c3ccc4ccc(-c5ccccc5)nc4c3)c3c(N)nccn32)C1 [Linsitinib] + CC(C)C[C@H](NC(=O)[C@H](Cc1ccccc1)NC(=O)c1cnccn1)B(O)O [Bortezomib] (partner 0.002 µM)
How it was run: as §1

[3] = compound: C[C@]1(O)C[C@@H](c2nc(-c3ccc4ccc(-c5ccccc5)nc4c3)c3c(N)nccn32)C1 [Linsitinib] + CCNC(=O)c1noc(-c2cc(C(C)C)c(O)cc2O)c1-c1ccc(CN2CCOCC2)cc1 [Luminespib] (partner 0.01 µM)
How it was run: as §1

[4] = compound: Cc1ccc(C(=O)N(CCCN)[C@@H](c2nc3cc(Cl)ccc3c(=O)n2Cc2ccccc2)C(C)C)cc1 [Ispinesib] + Cc1nc(NC(=O)N2CCC[C@H]2C(N)=O)sc1-c1ccnc(C(C)(C)C(F)(F)F)c1 [Alpelisib] (partner 2 µM)
How it was run: as §1

Row | Cell Line | relative viability ([1]; first compound 0.001 µM) | relative viability ([1]; first compound 0.003162 µM) | relative viability ([1]; first compound 0.01 µM) | relative viability ([1]; first compound 0.03162 µM) | relative viability ([1]; first compound 0.1 µM) | relative viability ([2]; first compound 0.01 µM) | relative viability ([2]; first compound 0.03162 µM) | relative viability ([2]; first compound 0.1 µM) | relative viability ([2]; first compound 0.3162 µM) | relative viability ([2]; first compound 1 µM) | relative viability ([3]; first compound 0.01 µM) | relative viability ([3]; first compound 0.03162 µM) | relative viability ([3]; first compound 0.1 µM) | relative viability ([3]; first compound 1 µM) | relative viability ([4]; first compound 0.001 µM) | relative viability ([4]; first compound 0.003162 µM) | relative viability ([4]; first compound 0.01 µM) | relative viability ([4]; first compound 0.03162 µM) | relative viability ([4]; first compound 0.1 µM) | relative viability ([3]; first compound 0.3162 µM)
1 | NCI-H838 | 0.275 | 0.285 | 0.284 | 0.287 | 0.257 | 0.809 | 0.898 | 0.755 | 0.153 | 0.385 | 0.411 | 0.211 | 0.278 | 0.235 | 1.17 | 1.06 | 1.1 | 1.04 | 0.426 | 
2 | HCC-44 | 0.928 | 1.05 | 1.09 | 0.679 | 0.209 | 0.841 | 0.775 | 0.874 | 0.497 | 0.529 | 1.12 | 1.01 | 0.818 | 0.912 | 0.805 | 0.878 | 1.11 | 0.822 | 0.234 | 0.68
3 | HCC-827 | 0.43 | 0.534 | 0.43 | 0.446 | 0.372 | 1.04 | 1.04 | 0.934 | 0.827 | 1.01 | 0.733 | 0.599 | 0.648 | 0.657 | 0.91 | 1 | 0.981 | 0.922 | 0.814 | 
4 | SW 1573 | 0.18 | 0.19 | 0.174 | 0.194 | 0.131 | 1.18 | 1.19 | 1.1 | 0.797 | 0.811 | 0.22 | 0.359 | 0.238 | 0.238 | 1 | 0.816 | 1.07 | 0.893 | 0.255 | 0.129
5 | NCI-H2023 | 0.378 | 0.399 | 0.378 | 0.211 | 0.202 | 0.876 | 0.724 | 1 | 0.239 | 0.602 | 0.599 | 0.627 | 0.879 | 0.501 | 0.65 | 0.606 | 0.659 | 0.5 | 0.18 | 0.646
6 | EPLC-272H | 0.211 | 0.448 | 0.24 | 0.114 | 0.25 | 0.882 | 1.11 | 1.06 |  | 0.857 | 0.23 | 0.438 |  | 0.725 | 0.989 | 1.12 | 1.01 | 0.529 | 0.972 | 
7 | SK-LU-1 | 0.393 | 0.335 | 0.31 | 0.288 | 0.289 | 1.19 | 0.659 | 1.25 | 0.492 | 0.561 | 0.212 |  | 0.203 | 0.215 | 1.08 | 1.01 | 1.15 | 0.773 | 0.383 | 0.208
8 | ABC-1 | 0.197 | 0.174 | 0.21 | 0.182 | 0.184 | 0.325 | 0.291 | 0.276 | 0.284 | 0.252 | 0.544 | 0.392 | 0.604 | 0.312 | 1.36 | 0.881 | 1.25 | 0.343 | 0.315 | 0.519
9 | NCI-H2085 | 0.881 | 0.855 | 1 | 0.76 | 0.651 | 1.03 | 1.06 | 0.997 | 0.888 | 0.976 | 0.36 | 0.425 | 0.379 | 0.407 | 0.997 | 1.04 | 1.04 | 1.02 | 0.688 | 0.402
10 | NCI-H2087 | 0.301 | 0.246 | 0.29 | 0.261 | 0.155 | 0.947 | 0.97 | 0.945 | 0.594 | 0.641 | 0.167 | 0.169 | 0.132 | 0.142 | 0.992 | 1.2 | 1.28 | 1.02 | 0.159 | 0.15
11 | NCI-H322M | 0.531 | 0.275 | 0.445 | 0.333 | 0.396 | 1.24 | 1.12 | 1.44 | 0.922 | 1.19 | 0.946 | 0.444 | 0.856 | 0.658 | 0.866 | 0.889 | 0.846 | 0.467 | 0.66 | 0.698
12 | NCI-H1734 | 0.258 | 0.121 | 0.25 | 0.254 | 0.218 | 0.851 | 0.962 | 1.01 | 0.665 | 0.643 | 0.204 | 0.206 | 0.198 | 0.178 | 0.659 | 0.743 | 0.763 | 0.721 | 0.517 | 0.154
13 | NCI-H2228 | 0.299 | 0.28 | 0.236 | 0.152 | 0.365 | 1.05 | 0.89 | 0.787 | 0.72 | 0.765 | 0.138 | 0.179 | 0.214 | 0.139 | 0.632 | 0.582 | 1.14 | 0.522 | 0.325 | 0.145
14 | EKVX | 0.417 | 0.386 | 0.424 | 0.373 | 0.223 | 1.12 | 1.02 | 1.07 | 0.9 | 0.852 | 0.844 | 0.842 | 0.87 | 0.684 | 0.978 | 0.879 | 0.923 | 0.944 | 0.273 | 0.688
15 | NCI-H596 | 0.956 | 0.86 | 0.916 | 0.945 | 0.432 | 1.12 | 0.996 | 0.974 | 0.872 | 1.06 | 1.16 | 0.991 | 1.2 | 0.867 | 0.563 | 0.427 | 0.583 | 0.458 | 0.394 | 0.862
16 | NCI-H1975 | 0.964 | 0.956 | 0.795 | 0.557 | 0.215 | 0.332 | 0.348 | 0.373 | 0.404 | 0.296 | 0.24 | 0.263 | 0.281 | 0.127 | 0.738 | 0.672 | 0.666 | 0.332 | 0.226 | 0.302
17 | NCI-H1666 | 0.56 | 0.601 | 0.613 | 0.542 | 0.454 | 0.675 | 0.798 | 0.774 | 0.348 | 0.308 | 0.95 | 1.08 | 1.12 | 1.02 | 1.07 | 0.936 | 0.988 | 0.567 | 0.388 | 1.07
18 | PC-3 [JPC-3] | 0.899 | 0.902 | 0.961 | 1.01 | 0.59 | 0.745 | 0.824 | 0.821 | 0.637 | 0.713 | 0.716 | 0.69 | 0.764 | 0.712 | 0.992 | 1.09 | 1.07 | 1.06 | 1.11 | 0.669
19 | NCI-H1755 | 0.529 | 0.627 | 0.595 | 0.638 | 0.46 | 0.939 | 0.882 | 0.981 | 0.661 | 0.794 | 0.41 | 0.244 | 0.419 | 0.469 | 1.09 | 1.03 | 1.16 | 0.815 | 0.547 | 0.327
20 | RERF-LC-KJ | 0.593 | 0.412 | 0.329 | 0.262 | 0.354 | 0.95 | 1.03 | 1.16 | 0.892 | 0.927 | 1.12 | 1.15 | 1.42 | 1.1 | 0.836 | 1.32 | 0.77 | 0.794 | 0.631 | 1.13
21 | NCI-H647 | 0.323 | 0.201 | 0.0519 | 0.217 | 0.303 | 1.03 | 1.12 | 1.07 |  | 0.811 | 0.169 | 0.117 | 0.524 | 0.184 | 1.38 | 1.26 | 1.66 | 0.192 | 0.14 | 
22 | BEN | 0.508 | 0.464 | 0.548 | 0.633 | 0.574 | 0.884 | 0.78 | 0.658 | 0.612 | 0.626 | 0.411 | 0.503 | 0.3 | 0.383 | 1.06 | 1.13 | 1.12 | 0.758 | 0.353 | 
23 | 201T | 0.919 | 0.979 | 0.998 | 0.999 | 0.587 | 1.1 | 1.12 | 1.08 | 1.08 | 1.03 | 1.05 | 1.13 | 1.02 | 1.1 | 1.07 | 1.01 | 1.06 | 0.996 | 0.955 | 1.18
24 | LC-2-ad | 0.42 | 0.52 | 0.384 | 0.322 | 0.241 | 1 | 1.1 | 1.02 | 0.664 | 0.636 | 1 | 1.07 | 0.971 | 0.877 | 0.932 | 0.94 | 1.06 | 0.697 | 0.268 | 0.873
25 | LCLC-97TM1 | 0.196 | 0.143 | 0.215 | 0.173 | 0.191 | 0.316 | 0.488 | 0.578 | 0.236 | 0.18 | 0.753 | 0.854 | 0.622 | 0.678 | 0.282 | 0.23 | 0.324 | 0.211 | 0.159 | 0.501
26 | NCI-H1915 | 0.444 | 0.528 | 0.498 | 0.462 | 0.315 | 0.948 | 0.979 | 0.961 | 0.918 | 0.671 | 0.796 | 0.61 | 0.835 | 0.797 | 1.09 | 1.16 | 1.03 | 0.958 | 0.979 | 0.707
27 | NCI-H3122 | 0.408 | 0.402 | 0.462 | 0.212 | 0.17 | 0.994 | 1.05 | 1.04 | 0.86 | 1.03 | 0.0915 | 0.1 | 0.0744 | 0.0925 | 0.783 | 0.86 | 0.778 | 0.897 | 0.223 | 0.0902
